Source: PubChem BioAssay (NCI)
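Step 1: Grow cells in 96-well plates. Step 2: Expose to compound for 48 hours at 5 concentrations. Step 3: Interpolate endpoints linearly; if unreached, use highest concentration. At the GI50, growth is halved. The concentration for full growth arrest is given as TGI.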

Assays:
Experiment in all cases: inhibition of tumour cell growth, NCI panel, 48 h
[1] = test system: 786-0 renal
[2] = test system: A498 renal
[3] = test system: A549 NSCLC
[4] = test system: ACHN renal
[5] = test system: BT-549 breast
[6] = test system: CAKI-1 renal
[7] = test system: CCRF-CEM leukemia
[8] = test system: COLO 205 colon
[9] = test system: DU-145 prostate
[10] = test system: EKVX NSCLC
[11] = test system: HCC-2998 colon
[12] = test system: HCT-116 colon
[13] = test system: HCT-15 colon
[14] = test system: HL-60(TB) leukemia
[15] = test system: HOP-62 NSCLC
[16] = test system: HOP-92 NSCLC
[17] = test system: HS 578T breast
[18] = test system: HT29 colon
[19] = test system: IGROV1 ovarian
[20] = test system: K-562 leukemia
[21] = test system: KM12 colon
[22] = test system: LOX IMVI melanoma
[23] = test system: M14 melanoma
[24] = test system: MALME-3M melanoma
[25] = test system: MCF7 breast
[26] = test system: MDA-MB-231 breast
[27] = test system: MDA-MB-435
[28] = test system: MOLT-4 leukemia
[29] = test system: NCI-H226 lung
[30] = test system: NCI-H23 lung
[31] = test system: NCI-H460 lung
[32] = test system: NCI-H522 lung
[33] = test system: NCI/ADR-RES ovarian
[34] = test system: OVCAR-3 ovarian
[35] = test system: OVCAR-4 ovarian
[36] = test system: OVCAR-5 ovarian
[37] = test system: OVCAR-8 ovarian
[38] = test system: PC-3 prostate
[39] = test system: RPMI-8226 leukemia
[40] = test system: RXF 393 renal
[41] = test system: SF-268 CNS
[42] = test system: SF-295 CNS
[43] = test system: SF-539 CNS
[44] = test system: SK-MEL-2 melanoma
[45] = test system: SK-MEL-28 melanoma
[46] = test system: SK-MEL-5 melanoma
[47] = test system: SK-OV-3 ovarian
[48] = test system: SN12C renal
[49] = test system: SNB-19 CNS
[50] = test system: SNB-75 CNS
[51] = test system: SR leukemia
[52] = test system: SW-620 colon
[53] = test system: T-47D breast
[54] = test system: TK-10 renal
[55] = test system: U251 CNS
[56] = test system: UACC-257 melanoma
[57] = test system: UACC-62 melanoma
[58] = test system: UO-31 renal

CCS(=O)(=O)c1ccc(OC)c(Nc2ncc(-c3cccc(-c4ccccc4F)c3)o2)c1
GI50 [1]: 20.3 µM | TGI [1]: > 25 µM | GI50 [2]: 1.07 µM | TGI [2]: 7.54 µM | GI50 [3]: > 25 µM | TGI [3]: > 25 µM | GI50 [4]: 13.1 µM | TGI [4]: > 25 µM | GI50 [5]: > 22.2 µM | TGI [5]: > 25 µM | GI50 [6]: 10.8 µM | TGI [6]: > 25 µM | GI50 [7]: > 25 µM | TGI [7]: > 25 µM | GI50 [8]: > 20.1 µM | TGI [8]: > 25 µM | GI50 [9]: > 25 µM | TGI [9]: > 25 µM | GI50 [10]: 7.89 µM | TGI [10]: > 25 µM | GI50 [11]: > 25 µM | TGI [11]: > 25 µM | GI50 [12]: > 22.9 µM | TGI [12]: > 25 µM | GI50 [13]: 16.8 µM | TGI [13]: > 25 µM | GI50 [14]: > 25 µM | TGI [14]: > 25 µM | GI50 [15]: > 19.9 µM | TGI [15]: > 25 µM | GI50 [16]: 3.16 µM | TGI [16]: 20.7 µM | GI50 [17]: 3.63 µM | TGI [17]: 15.8 µM | GI50 [18]: 15 µM | TGI [18]: > 25 µM | GI50 [19]: 6.1 µM | TGI [19]: 20.7 µM | GI50 [20]: 5.75 µM | TGI [20]: > 25 µM | GI50 [21]: 0.833 µM | TGI [21]: > 25 µM | GI50 [22]: 15.1 µM | TGI [22]: > 25 µM | GI50 [23]: > 25 µM | TGI [23]: > 25 µM | GI50 [24]: > 25 µM | TGI [24]: > 25 µM | GI50 [25]: > 21 µM | TGI [25]: > 25 µM | GI50 [26]: 14.1 µM | TGI [26]: > 25 µM | GI50 [27]: > 25 µM | TGI [27]: > 25 µM | GI50 [28]: > 25 µM | TGI [28]: > 25 µM | GI50 [29]: 2.24 µM | TGI [29]: > 25 µM | GI50 [30]: > 23.8 µM | TGI [30]: > 25 µM | GI50 [31]: > 25 µM | TGI [31]: > 25 µM | GI50 [32]: 10.6 µM | TGI [32]: > 25 µM | GI50 [33]: 15.4 µM | TGI [33]: > 25 µM | GI50 [34]: 15.7 µM | TGI [34]: > 25 µM | GI50 [35]: 3.79 µM | TGI [35]: > 25 µM | GI50 [36]: 13 µM | TGI [36]: > 25 µM | GI50 [37]: > 25 µM | TGI [37]: > 25 µM | GI50 [38]: 15.5 µM | TGI [38]: > 25 µM | GI50 [39]: 23.9 µM | TGI [39]: > 25 µM | GI50 [40]: 2.45 µM | TGI [40]: > 17.9 µM | GI50 [41]: 15.1 µM | TGI [41]: > 25 µM | GI50 [42]: 10.1 µM | TGI [42]: > 25 µM | GI50 [43]: 7.81 µM | TGI [43]: > 25 µM | GI50 [44]: > 25 µM | TGI [44]: > 25 µM | GI50 [45]: > 25 µM | TGI [45]: > 25 µM | GI50 [46]: > 14.6 µM | TGI [46]: > 25 µM | GI50 [47]: 5.1 µM | TGI [47]: 14.3 µM | GI50 [48]: 14.8 µM | TGI [48]: > 25 µM | GI50 [49]: > 17.2 µM | TGI [49]: > 25 µM | GI50 [50]: 4.77 µM | TGI [50]: 24.3 µM | GI50 [51]: > 25 µM | TGI [51]: > 25 µM | GI50 [52]: > 25 µM | TGI [52]: > 25 µM | GI50 [53]: 6.45 µM | TGI [53]: > 25 µM | GI50 [54]: 7.32 µM | TGI [54]: > 25 µM | GI50 [55]: 12.1 µM | TGI [55]: > 25 µM | GI50 [56]: > 25 µM | TGI [56]: > 25 µM | GI50 [57]: > 25 µM | TGI [57]: > 25 µM | GI50 [58]: 1.48 µM | TGI [58]: 20.3 µM

NC(=O)Cc1ccccc1Oc1nccc(-c2c(-c3ccc(F)cc3)ncn2C2CCNCC2)n1
GI50 [1]: > 25 µM | TGI [1]: > 25 µM | GI50 [2]: > 25 µM | TGI [2]: > 25 µM | GI50 [3]: > 25 µM | TGI [3]: > 25 µM | GI50 [4]: > 25 µM | TGI [4]: > 25 µM | GI50 [5]: > 25 µM | TGI [5]: > 25 µM | GI50 [6]: > 25 µM | TGI [6]: > 25 µM | GI50 [7]: > 25 µM | TGI [7]: > 25 µM | GI50 [8]: > 25 µM | TGI [8]: > 25 µM | GI50 [9]: > 25 µM | TGI [9]: > 25 µM | GI50 [10]: > 25 µM | TGI [10]: > 25 µM | GI50 [11]: > 25 µM | TGI [11]: > 25 µM | GI50 [12]: > 25 µM | TGI [12]: > 25 µM | GI50 [13]: > 25 µM | TGI [13]: > 25 µM | GI50 [14]: > 25 µM | TGI [14]: > 25 µM | GI50 [15]: > 25 µM | TGI [15]: > 25 µM | GI50 [16]: > 25 µM | TGI [16]: > 25 µM | GI50 [17]: > 9.24 µM | TGI [17]: > 25 µM | GI50 [18]: > 25 µM | TGI [18]: > 25 µM | GI50 [19]: > 25 µM | TGI [19]: > 25 µM | GI50 [20]: > 25 µM | TGI [20]: > 25 µM | GI50 [21]: > 25 µM | TGI [21]: > 25 µM | GI50 [22]: > 25 µM | TGI [22]: > 25 µM | GI50 [23]: > 25 µM | TGI [23]: > 25 µM | GI50 [24]: > 25 µM | TGI [24]: > 25 µM | GI50 [25]: > 25 µM | TGI [25]: > 25 µM | GI50 [26]: > 25 µM | TGI [26]: > 25 µM | GI50 [27]: > 25 µM | TGI [27]: > 25 µM | GI50 [28]: > 25 µM | TGI [28]: > 25 µM | GI50 [29]: > 25 µM | TGI [29]: > 25 µM | GI50 [30]: > 25 µM | TGI [30]: > 25 µM | GI50 [31]: > 25 µM | TGI [31]: > 25 µM | GI50 [32]: > 25 µM | TGI [32]: > 25 µM | GI50 [33]: > 25 µM | TGI [33]: > 25 µM | GI50 [34]: > 25 µM | TGI [34]: > 25 µM | GI50 [35]: > 25 µM | TGI [35]: > 25 µM | GI50 [36]: > 25 µM | TGI [36]: > 25 µM | GI50 [37]: > 25 µM | TGI [37]: > 25 µM | GI50 [38]: > 25 µM | TGI [38]: > 25 µM | GI50 [39]: > 25 µM | TGI [39]: > 25 µM | GI50 [40]: > 25 µM | TGI [40]: > 25 µM | GI50 [41]: > 25 µM | TGI [41]: > 25 µM | GI50 [42]: > 25 µM | TGI [42]: > 25 µM | GI50 [43]: > 25 µM | TGI [43]: > 25 µM | GI50 [44]: > 25 µM | TGI [44]: > 25 µM | GI50 [45]: > 25 µM | TGI [45]: > 25 µM | GI50 [46]: > 25 µM | TGI [46]: > 25 µM | GI50 [47]: > 25 µM | TGI [47]: > 25 µM | GI50 [48]: > 25 µM | TGI [48]: > 25 µM | GI50 [49]: > 25 µM | TGI [49]: > 25 µM | GI50 [50]: > 19.1 µM | TGI [50]: > 25 µM | GI50 [51]: > 25 µM | TGI [51]: > 25 µM | GI50 [52]: > 25 µM | TGI [52]: > 25 µM | GI50 [53]: > 25 µM | TGI [53]: > 25 µM | GI50 [54]: > 25 µM | TGI [54]: > 25 µM | GI50 [55]: > 25 µM | TGI [55]: > 25 µM | GI50 [56]: > 25 µM | TGI [56]: > 25 µM | GI50 [57]: > 25 µM | TGI [57]: > 25 µM | GI50 [58]: > 25 µM | TGI [58]: > 25 µM
